According to patent US20250230193A1, “CYCLIC COMPOUND HAVING SELECTIVE KRAS INHIBITORY EFFECT ON HRAS AND NRAS” (CHUGAI SEIYAKU KABUSHIKI KAISHA, priority 2022, published 2025):

What was measured:
[1] = biological target: GDP-bound HRAS wild-type protein (Homo sapiens, UniProt P01112); test: Binding to HRAS by surface plasmon resonance (SPR), Single Cycle Kinetics; details: KD ratio, GDP-bound HRAS wild-type vs GDP-bound KRAS wild-type, SPR
[2] = biological target: GDP-bound NRAS wild-type protein (Homo sapiens, UniProt P01111); test: Binding to NRAS by surface plasmon resonance (SPR), Single Cycle Kinetics; details: KD ratio, GDP-bound NRAS wild-type vs GDP-bound KRAS wild-type, SPR
GDP-bound NRAS wild-type protein, sequence (P01111 whole entry): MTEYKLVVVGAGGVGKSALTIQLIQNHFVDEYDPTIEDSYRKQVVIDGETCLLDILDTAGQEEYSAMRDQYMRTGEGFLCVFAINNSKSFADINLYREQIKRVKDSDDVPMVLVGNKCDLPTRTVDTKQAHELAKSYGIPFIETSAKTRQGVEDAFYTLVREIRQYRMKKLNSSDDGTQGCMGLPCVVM

GDP-bound HRAS wild-type protein, sequence (P01112 whole entry): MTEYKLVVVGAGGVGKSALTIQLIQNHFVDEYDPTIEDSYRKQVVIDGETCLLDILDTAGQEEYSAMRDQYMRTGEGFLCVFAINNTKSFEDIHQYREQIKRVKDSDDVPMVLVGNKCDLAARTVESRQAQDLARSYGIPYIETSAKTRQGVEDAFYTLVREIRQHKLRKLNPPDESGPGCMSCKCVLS

SMILES | HRAS/KRAS (ratio of KD value with respect to HRAS to KD value with respect to KRAS) [1] | NRAS/KRAS (ratio of KD value with respect to NRAS to KD value with respect to KRAS) [2]
CC[C@H](C)[C@@H]1NC(=O)[C@H](CC(C)C)N(C)C(=O)C[C@@H](C(=O)N2CCOCC2)N(C)C(=O)[C@H](C2CCCC2)N(C)C(=O)C2(CCC2)NC(=O)[C@@H]2C[C@@H](OCC3CC3)CN2C(=O)[C@H](CCc2cc(F)c(C(F)(F)F)c(F)c2)NC(=O)CN(C)C(=O)[C@H](Cc2ccc(C(F)(F)F)cc2)N2CCCC[C@@H](C2=O)N(C)C(=O)CN(C)C1=O [PP1000] | B (a compound having 3 or more and less than 10 is denoted as B) | B (a compound having 3 or more and less than 10 is denoted as B)
CC[C@H](C)[C@@H]1NC(=O)[C@H](CC(C)C)N(C)C(=O)C[C@@H](C(=O)N2CCOCC2)N(C)C(=O)[C@H](C2CCCC2)N(C)C(=O)C2(CCC2)NC(=O)[C@@H]2C[C@@H](OCC3CCCC3)CN2C(=O)[C@H](CCc2cc(F)c(C(F)(F)F)c(F)c2)NC(=O)CN(C)C(=O)[C@H](Cc2ccc(C(F)(F)F)cc2)N2CCCC[C@@H](C2=O)N(C)C(=O)CN(C)C1=O [PP1001] | B (a compound having 3 or more and less than 10 is denoted as B) | B (a compound having 3 or more and less than 10 is denoted as B)
CC[C@H](C)[C@@H]1NC(=O)[C@H](CC(C)C)N(C)C(=O)C[C@@H](C(=O)N2CCOCC2)N(C)C(=O)[C@H](C2CCCC2)N(C)C(=O)C2(CCC2)NC(=O)[C@@H]2C[C@@H](OCC(F)F)CN2C(=O)[C@H](CCc2cc(F)c(C(F)(F)F)c(F)c2)NC(=O)CN(C)C(=O)[C@H](Cc2ccc(C(F)(F)F)cc2)N2CCCC[C@@H](C2=O)N(C)C(=O)CN(C)C1=O [PP1002] | B (a compound having 3 or more and less than 10 is denoted as B) | B (a compound having 3 or more and less than 10 is denoted as B)
CC[C@H](C)[C@@H]1NC(=O)[C@H](CC(C)C)N(C)C(=O)C[C@@H](C(=O)N2CCOCC2)N(C)C(=O)[C@H](C2CCCC2)N(C)C(=O)C2(CCC2)NC(=O)[C@@H]2C[C@@H](OC)CN2C(=O)[C@H](CCc2cc(F)c(C(F)(F)F)c(F)c2)NC(=O)CN(C)C(=O)[C@H](Cc2ccc(C(F)(F)F)cc2)N2CCCC[C@@H](C2=O)N(C)C(=O)CN(C)C1=O [PP1003] | B (a compound having 3 or more and less than 10 is denoted as B) | C (A compound having a KD ratio of 0.1 or more and less than 3 is denoted as C)
CCCCO[C@@H]1C[C@H]2C(=O)NC3(CCC3)C(=O)N(C)[C@@H](C3CCCC3)C(=O)N(C)[C@H](C(=O)N3CCOCC3)CC(=O)N(C)[C@@H](CC(C)C)C(=O)N[C@@H]([C@@H](C)CC)C(=O)N(C)CC(=O)N(C)[C@H]3CCCCCN(C3=O)[C@@H](Cc3ccc(C(F)(F)F)cc3)C(=O)N(C)CC(=O)N[C@@H](CCc3cc(F)c(C(F)(F)F)c(F)c3)C(=O)N2C1 [PP1004] | B (a compound having 3 or more and less than 10 is denoted as B) | B (a compound having 3 or more and less than 10 is denoted as B)
CC[C@H](C)[C@@H]1NC(=O)[C@H](CC(C)C)N(C)C(=O)C[C@@H](C(=O)N2CCOCC2)N(C)C(=O)[C@H](C2CCCC2)N(C)C(=O)C2(CCC2)NC(=O)[C@@H]2C[C@@H](OCC3CC3)CN2C(=O)[C@H](CCc2cc(F)c(C(F)(F)F)c(F)c2)NC(=O)CN(C)C(=O)[C@H](Cc2ccc(C(F)(F)F)cc2)N2CCCCC[C@@H](C2=O)N(C)C(=O)CN(C)C1=O [PP1005] | A (a compound having 10 or more and less than 20 is denoted as A) | A (a compound having 10 or more and less than 20 is denoted as A)
CC[C@H](C)[C@@H]1NC(=O)[C@H](CC(C)C)N(C)C(=O)C[C@@H](C(=O)N2CCOCC2)N(C)C(=O)[C@H](C2CCCC2)N(C)C(=O)C2(CCC2)NC(=O)[C@@H]2C[C@@H](OCC(F)F)CN2C(=O)[C@H](CCc2cc(F)c(C(F)(F)F)c(F)c2)NC(=O)CN(C)C(=O)[C@H](Cc2ccc(C(F)(F)F)cc2)N2CCCCC[C@@H](C2=O)N(C)C(=O)CN(C)C1=O [PP1006] | B (a compound having 3 or more and less than 10 is denoted as B) | B (a compound having 3 or more and less than 10 is denoted as B)
CCCCO[C@H]1CCN2C(=O)[C@H](CCc3cc(F)c(C(F)(F)F)c(F)c3)NC(=O)CN(C)C(=O)[C@H](Cc3ccc(C(F)(F)F)cc3)N3CCCCC[C@@H](C3=O)N(C)C(=O)CN(C)C(=O)[C@H]([C@@H](C)CC)NC(=O)[C@H](CC(C)C)N(C)C(=O)C[C@@H](C(=O)N3CCOCC3)N(C)C(=O)[C@H](C3CCCC3)N(C)C(=O)C3(CCC3)NC(=O)[C@H]12 [PP1009] | B (a compound having 3 or more and less than 10 is denoted as B) | B (a compound having 3 or more and less than 10 is denoted as B)
CC[C@H](C)[C@@H]1NC(=O)[C@H](CC(C)C)N(C)C(=O)C[C@@H](C(=O)N2CCOCC2)N(C)C(=O)[C@H](C2CCCC2)N(C)C(=O)C2(CCC2)NC(=O)[C@@H]2[C@@H](OCC3CC3)CCN2C(=O)[C@H](CCc2cc(F)c(C(F)(F)F)c(F)c2)NC(=O)CN(C)C(=O)[C@H](Cc2ccc(C(F)(F)F)cc2)N2CCCCC[C@@H](C2=O)N(C)C(=O)CN(C)C1=O [PP1010] | B (a compound having 3 or more and less than 10 is denoted as B) | B (a compound having 3 or more and less than 10 is denoted as B)
CC[C@H](C)[C@@H]1NC(=O)[C@H](CC(C)C)N(C)C(=O)C[C@@H](C(=O)N2CCOCC2)N(C)C(=O)[C@H](C2CCCC2)N(C)C(=O)C2(CCC2)NC(=O)[C@@H]2[C@@H](OCC3CCCC3)CCN2C(=O)[C@H](CCc2cc(F)c(C(F)(F)F)c(F)c2)NC(=O)CN(C)C(=O)[C@H](Cc2ccc(C(F)(F)F)cc2)N2CCCCC[C@@H](C2=O)N(C)C(=O)CN(C)C1=O [PP1011] | B (a compound having 3 or more and less than 10 is denoted as B) | A (a compound having 10 or more and less than 20 is denoted as A)
CC[C@H](C)[C@@H]1NC(=O)[C@H](CC(C)C)N(C)C(=O)C[C@@H](C(=O)N2CCOCC2)N(C)C(=O)[C@H](C2CCCC2)N(C)C(=O)C2(CCC2)NC(=O)[C@@H]2[C@@H](OCC(F)F)CCN2C(=O)[C@H](CCc2cc(F)c(C(F)(F)F)c(F)c2)NC(=O)CN(C)C(=O)[C@H](Cc2ccc(C(F)(F)F)cc2)N2CCCCC[C@@H](C2=O)N(C)C(=O)CN(C)C1=O [PP1012] | B (a compound having 3 or more and less than 10 is denoted as B) | A (a compound having 10 or more and less than 20 is denoted as A)
CCCCO[C@@H]1C[C@H]2C(=O)NC3(CCC3)C(=O)N(C)[C@@H](C3CCCC3)C(=O)N(C)[C@H](C(=O)N3CCOCC3)CC(=O)N(C)[C@@H](CC(C)C)C(=O)N[C@@H]([C@@H](C)CC)C(=O)N(C)CC(=O)N(C)[C@H]3CCCCN(C3=O)[C@@H](Cc3ccc(C(F)(F)F)cc3)C(=O)N(C)CC(=O)N[C@@H](CCc3cc(F)c(C(F)(F)F)c(F)c3)C(=O)N2C1 [PP1013] | C (A compound having a KD ratio of 0.1 or more and less than 3 is denoted as C) | C (A compound having a KD ratio of 0.1 or more and less than 3 is denoted as C)
CC[C@H](C)[C@@H]1NC(=O)[C@H](CC(C)C)N(C)C(=O)C[C@@H](C(=O)N2CCOCC2)N(C)C(=O)[C@H](C2CCCC2)N(C)C(=O)C2(CCC2)NC(=O)[C@@H]2C[C@@H](OCC3CC3)CN2C(=O)[C@H](CCc2cc(F)c(C(F)(F)F)c(F)c2)NC(=O)CN(C)C(=O)[C@H](Cc2ccc(C(F)(F)F)cc2)N2CCCC[C@@H](C2=O)N(C)C(=O)CN(C)C1=O [PP1014] | C (A compound having a KD ratio of 0.1 or more and less than 3 is denoted as C) | C (A compound having a KD ratio of 0.1 or more and less than 3 is denoted as C)
CC[C@H](C)[C@@H]1NC(=O)[C@H](CC(C)C)N(C)C(=O)C[C@@H](C(=O)N2CCOCC2)N(C)C(=O)[C@H](C2CCCC2)N(C)C(=O)C2(CCC2)NC(=O)[C@@H]2C[C@@H](OCC3CCCC3)CN2C(=O)[C@H](CCc2cc(F)c(C(F)(F)F)c(F)c2)NC(=O)CN(C)C(=O)[C@H](Cc2ccc(C(F)(F)F)cc2)N2CCCC[C@@H](C2=O)N(C)C(=O)CN(C)C1=O [PP1015] | C (A compound having a KD ratio of 0.1 or more and less than 3 is denoted as C) | C (A compound having a KD ratio of 0.1 or more and less than 3 is denoted as C)
CC[C@H](C)[C@@H]1NC(=O)[C@H](CC(C)C)N(C)C(=O)C[C@@H](C(=O)N2CCOCC2)N(C)C(=O)[C@H](C2CCCC2)N(C)C(=O)C2(CCC2)NC(=O)[C@@H]2C[C@@H](OC)CN2C(=O)[C@H](CCc2cc(F)c(C(F)(F)F)c(F)c2)NC(=O)CN(C)C(=O)[C@H](Cc2ccc(C(F)(F)F)cc2)N2CCCCC[C@@H](C2=O)N(C)C(=O)CN(C)C1=O [PP1016] | B (a compound having 3 or more and less than 10 is denoted as B) | A (a compound having 10 or more and less than 20 is denoted as A)
CCO[C@@H]1C[C@H]2C(=O)NC3(CCCC3)C(=O)N(C)[C@@H](C3CCCC3)C(=O)N(C)[C@H](C(=O)N(C)C)CC(=O)N(C)[C@@H](CC(C)C)C(=O)N[C@@H]([C@@H](C)CC)C(=O)N(C)CC(=O)N(C)[C@H]3C[C@@H](C)CCN(C3=O)[C@@H](Cc3ccc(C(F)(F)F)cc3)C(=O)N(C)CC(=O)N[C@@H](CCc3cc(F)c(C(F)(F)F)c(F)c3)C(=O)N2C1 [PP1017] | B (a compound having 3 or more and less than 10 is denoted as B) | C (A compound having a KD ratio of 0.1 or more and less than 3 is denoted as C)
